Results on seven molecules are retold here after patent publication US9765115B2, “Inhibitors of metastasis, methods of generating such inhibitors and their therapeutic applications” (Board of Supervisors of Louisiana State University acting …, priority 2011, dated 2017).

In one assay the test system is PC-3-CTR-wt cells. As to the kind of experiment: Matrigel in vitro invasion assay. Type of assay: cell-based. The conditions noted are these: for effect on CT-induced invasion / effect on basal invasion: peptide 50 μM; for effect on CT-induced invasion: CT 50 nM; for effect on basal invasion: no CT. The protocol: Invasion experiments were conducted in Matrigel™ invasion chambers as previously described (Sabbisetti et al., 2005).
CT increases invasiveness, and even induces an invasive phenotype in non-invasive prostate cancer cells. The role of PDZ-binding motif in CT-stimulated invasion was examined. FIG. 2C depicts CTR-C PDZ-binding motif mutation and effects on cell invasion. PC-3V, PC-3 CTRwt and PC-3 CTRΔESS cells were added to upper insert of invasion chambers with or without 50 nM CT, and cells that passed through the Matrigel™ barrier were counted after 48 h. The results are expressed as mean number of invaded cells per 400× field ±SEM (n=6; *p<0.05 (PC-3V v PC-3CTR-wt); $ p<0.05 (PC-3CTR-wt v PC-3CTRΔESS); $$-p<0.05 (PC-3CTRwt+CT v PC-3CTRΔESS+CT) (one-way ANOVA and Newman-Keul's test)). Expression of CTRwt in PC-3 cells increased invasion by 2.5-fold (FIG. 2C).
(§1) As shown above, CTR binds to ZO-1 through PDZ interaction (i.e. PDZ ligand on C-tail of CTR binds to the PDZ domain of ZO-1). To attenuate this binding, ZO-1 was saturated with a small C-terminal peptide of CTR sequence containing the PDZ-binding motif. Since ZO-1 is an intracellular membrane protein, the interfering peptide was delivered inside the plasma membrane. It has been shown that trans-activating transcriptional activator (TAT) protein (86-mer polypeptide) from HIV-1 enters mammalian cells when added to the surrounding media (Frankel et al., 1988; Green et al., 1989). Certain small regions of such proteins (10-16-mers) called protein transduction domains (PTDs), also efficiently traverse biological membranes (Elliott et al., 1997). Therefore, a fusion peptide Pep 1 was synthesized of TAT-peptide sequences of HIV virus and CTR-C(N-[…]-C (SEQ ID NO:2), CTR-C sequence underlined). The first experiment was to see if Pep I binds to ZO-1 in reversible fashion. For this, amino acid Y in Pep I was labeled with ^125I, and the binding with ZO-1 analyzed in the presence/absence of unlabeled Pep I (1000×; 20 μM). PC-3CTR-ZO-1-MYC cells were first incubated with unlabeled Pep I or control peptide (20 μM) for 5 min. The cells were then incubated with ^125I-pep I or C for 25 min. The cells were then washed in IP buffer, treated with DSP, and lysed. ZO-1 IPs were obtained, fractionated on SDS-PAGE, and autoradiographed. […] Next, whether Pep I competes with CTR for ZO-1 binding was tested. For this, PC-3-CTR-wt cells were treated with CT (50 nM) and or Pep I (50 μM) for 15 min. The CTR IPs were then immunoblotted and probed for ZO-1 immunoreactivity. […] Next, the biological impact of this phenomenon was examined by testing the effect of Pep I on CTR-stimulated invasion.
The binding of ZO-1 and CTR can be attenuated by saturating ZO-1 with a small C-terminal peptide of CTR sequence containing the PDZ ligand. Since ZO-1 is an intracellular membrane protein, the interfering peptide must penetrate plasma membrane to interact with ZO-1. As discussed above, fusion peptides of small TAT peptides (12-mer) and six (Pep I) or eight amino acids (Pep II) of C-terminal of CTR were synthesized. Control peptides were TAT peptides (12-mer) containing random amino acid sequence of equivalent size (6-mer). […] Thus, these two peptides (sequences given below) could be used therapeutically to attenuate or inhibit metastasis in cancerous cells.

The subject of the next assay is CTR-ZO-1 interaction. As to the kind of experiment: CTR-ZO-1 co-immunoprecipitation. Format: cell-based. As to conditions: Pep I 50 μM, with or without CT 50 nM, PC-3-CTR-wt cells. The protocol:
Serum-starved PC-31-V, PC-31-CTRwt or PC-31-CTRΔESS cells (2×10^6 per 100 mm dish) were stimulated with or without 50 nM CT for 3 min, washed, and lysed in the IP buffer as previously described (von Zastrow et al., 1994). CTR in normalized lysate proteins was immunoprecipitated with anti-FLAG EZ-view beads (Sigma Chemical Co., St. Louis, Mo.), and eluted with FLAG peptide (600 μg/ml in PBS). CTR immunoprecipitates were processed for ZO-1 immunoblotting. To control for protein loading and transfer, the blots were stripped and reprobed with immunoprecipitating antibody.
PC-31 cells stably expressing either FLAG-CTRwt or FLAGCTRΔESS were treated with or without CT for 3 min. The analysis of FLAG-CTR IPs confirmed that only FLAG-CTRwt, but not FLAG-CTRΔESS, co-precipitated ZO-1 (FIG. 3B). […] The effect of multiple CT concentrations on CTR-ZO-1 co-precipitation was tested in PC-3 cells. […] However, co-precipitation of ZO-1 by CTRwt was strong in PC-3 cells stimulated with 10 nM CT, and was even stronger in the cells receiving 100 nM CT.
as §1

The next assay addresses T1, ZO-1 (Homo sapiens, UniProt Q07157).
T1 construct: expressed in transfected cells; host or cells: PC-3CTR-ZO-1-MYC cells
Put plainly: 125I-Pep I binding to ZO-1 (ZO-1 immunoprecipitation, autoradiography). The protocol:
The cells were then treated with ^125I-TAT-pepI or TAT-C for 25 min. The cell lysates were then immunoprecipitated with Anti-ZO-1 serum, the immunoprecipitates were washed, fractionated on SDS-gel, and then immunoblotted for ZO-1 and autoradiographed.
As shown above, CTR binds to ZO-1 through PDZ interaction (i.e. PDZ ligand on C-tail of CTR binds to the PDZ domain of ZO-1). To attenuate this binding, ZO-1 was saturated with a small C-terminal peptide of CTR sequence containing the PDZ-binding motif. Since ZO-1 is an intracellular membrane protein, the interfering peptide was delivered inside the plasma membrane. It has been shown that trans-activating transcriptional activator (TAT) protein (86-mer polypeptide) from HIV-1 enters mammalian cells when added to the surrounding media (Frankel et al., 1988; Green et al., 1989). Certain small regions of such proteins (10-16-mers) called protein transduction domains (PTDs), also efficiently traverse biological membranes (Elliott et al., 1997). Therefore, a fusion peptide Pep 1 was synthesized of TAT-peptide sequences of HIV virus and CTR-C(N-[…]-C (SEQ ID NO:2), CTR-C sequence underlined). The first experiment was to see if Pep I binds to ZO-1 in reversible fashion. For this, amino acid Y in Pep I was labeled with ^125I, and the binding with ZO-1 analyzed in the presence/absence of unlabeled Pep I (1000×; 20 μM). […]

For assay [1], the system named is TCF/LEF promoter activity in PC-3 cells. As to the kind of experiment: TCF/LEF luciferase reporter assay (pGL3-OT/pGL3-OF). Type of assay: cell-based. As for the experimental part: FIG. 28 depicts effect of CT on TCF/LEF promoter activity in PC-3 cells with various compounds added with CT. Cells were seeded into 6-well plates and transfected with the pGL3-OT luciferase/pRL-tK plasmids or pGL3-OF-luciferase/pRL-TK plasmids. The cells were then incubated in complete medium for 48 h, after which they were serum-starved for 16 h. The cells were then treated with CT and/or PMH compounds, and the cell lysates analyzed for luciferase activity. The results are expressed as relative light units (RLU) after normalization with Renilla luciferase activity. The experiment was repeated three separate times, and results expressed as means±S.E.M.
Certain hydantoin-like molecules isolated from sea sponge have been identified that could inhibit prostate cell metastasis (Shah et al., 2009; Mudit et al., 2011). Disruption of junctional complex stabilizes intracellular β-catenin, leading to its translocation in the nucleus, where it can bind to its partner LEF-1 (lymphocyte enhancer binding factor-1) to transactivate target genes. The transcription of TCF/LEF genes can be quantitated by using luciferase-based reporter plasmids, pGL3-OT and pGL3-OF, the improved version of the Topflash and Fopflash vectors (Shah et al., 2009). This assay can be used to comparatively evaluate junction disrupting activity of multiple compounds in a single assay. […] The two compounds, MRM-6 and MRM-4, derivatives of PMH whose structures are shown below, were obtained from Dr. K. A. El Sayed.

A further assay deals with protein kinase A (PKA). Put plainly: PKA activity in cell lysates. Format: cell-based. As to conditions: 100 nM of mPKI, 10 μM of H-89. The protocol:
The lysates of untreated and CT-treated PC-3CTRwt and PC-3CTRΔESS cells were also used to determine CT-stimulated protein kinase A (PKA) and protein kinase C (PKC) activity (PKA and PKC assay kits, Promega, Madison, Wis.). The manufacturer's instructions were followed.
FIG. 1E depicts the effect of 50 nM CT on PKA activity in cell lysates of untreated and CT-treated PC-3 CTRwt and PC-3 CTRΔESS cells that were incubated with PKA substrate peptide and ^32P-ATP, and also treated with an activator of PKA, forskolin (FSK). FIG. 1F depicts the effect of 50 nM CT on PKC activity in lysates of untreated and CT-treated PC-3 CTRwt and PC-3 CTRΔESS cells that were incubated with PKC substrate peptide and ^32P-ATP, and also treated with an activator of PKC, phorbol 12-myristate 13-acetate (PMA).
To test whether specific PKA inhibitors abrogate CT-induced TJ disassembly, two specific, well-characterized PKA inhibitors, mPKI and H-89, were used. PC-3CTRwt cells were treated with CT (50 nM for 30 min) in the presence of mPKI (100 nM) or H-89 (10 μM). Either of these inhibitors was added 15 min prior to the addition of CT. […] FIG. 16A depicts photo micrographs of PC3-CTRwt cells, CT-stimulated in the presence and absence of mPKI. […]

Another assay deals with prostate tumor. As to conditions: Shah et al., 2009; cited from earlier work.

T1 sequence (Q07157 whole entry): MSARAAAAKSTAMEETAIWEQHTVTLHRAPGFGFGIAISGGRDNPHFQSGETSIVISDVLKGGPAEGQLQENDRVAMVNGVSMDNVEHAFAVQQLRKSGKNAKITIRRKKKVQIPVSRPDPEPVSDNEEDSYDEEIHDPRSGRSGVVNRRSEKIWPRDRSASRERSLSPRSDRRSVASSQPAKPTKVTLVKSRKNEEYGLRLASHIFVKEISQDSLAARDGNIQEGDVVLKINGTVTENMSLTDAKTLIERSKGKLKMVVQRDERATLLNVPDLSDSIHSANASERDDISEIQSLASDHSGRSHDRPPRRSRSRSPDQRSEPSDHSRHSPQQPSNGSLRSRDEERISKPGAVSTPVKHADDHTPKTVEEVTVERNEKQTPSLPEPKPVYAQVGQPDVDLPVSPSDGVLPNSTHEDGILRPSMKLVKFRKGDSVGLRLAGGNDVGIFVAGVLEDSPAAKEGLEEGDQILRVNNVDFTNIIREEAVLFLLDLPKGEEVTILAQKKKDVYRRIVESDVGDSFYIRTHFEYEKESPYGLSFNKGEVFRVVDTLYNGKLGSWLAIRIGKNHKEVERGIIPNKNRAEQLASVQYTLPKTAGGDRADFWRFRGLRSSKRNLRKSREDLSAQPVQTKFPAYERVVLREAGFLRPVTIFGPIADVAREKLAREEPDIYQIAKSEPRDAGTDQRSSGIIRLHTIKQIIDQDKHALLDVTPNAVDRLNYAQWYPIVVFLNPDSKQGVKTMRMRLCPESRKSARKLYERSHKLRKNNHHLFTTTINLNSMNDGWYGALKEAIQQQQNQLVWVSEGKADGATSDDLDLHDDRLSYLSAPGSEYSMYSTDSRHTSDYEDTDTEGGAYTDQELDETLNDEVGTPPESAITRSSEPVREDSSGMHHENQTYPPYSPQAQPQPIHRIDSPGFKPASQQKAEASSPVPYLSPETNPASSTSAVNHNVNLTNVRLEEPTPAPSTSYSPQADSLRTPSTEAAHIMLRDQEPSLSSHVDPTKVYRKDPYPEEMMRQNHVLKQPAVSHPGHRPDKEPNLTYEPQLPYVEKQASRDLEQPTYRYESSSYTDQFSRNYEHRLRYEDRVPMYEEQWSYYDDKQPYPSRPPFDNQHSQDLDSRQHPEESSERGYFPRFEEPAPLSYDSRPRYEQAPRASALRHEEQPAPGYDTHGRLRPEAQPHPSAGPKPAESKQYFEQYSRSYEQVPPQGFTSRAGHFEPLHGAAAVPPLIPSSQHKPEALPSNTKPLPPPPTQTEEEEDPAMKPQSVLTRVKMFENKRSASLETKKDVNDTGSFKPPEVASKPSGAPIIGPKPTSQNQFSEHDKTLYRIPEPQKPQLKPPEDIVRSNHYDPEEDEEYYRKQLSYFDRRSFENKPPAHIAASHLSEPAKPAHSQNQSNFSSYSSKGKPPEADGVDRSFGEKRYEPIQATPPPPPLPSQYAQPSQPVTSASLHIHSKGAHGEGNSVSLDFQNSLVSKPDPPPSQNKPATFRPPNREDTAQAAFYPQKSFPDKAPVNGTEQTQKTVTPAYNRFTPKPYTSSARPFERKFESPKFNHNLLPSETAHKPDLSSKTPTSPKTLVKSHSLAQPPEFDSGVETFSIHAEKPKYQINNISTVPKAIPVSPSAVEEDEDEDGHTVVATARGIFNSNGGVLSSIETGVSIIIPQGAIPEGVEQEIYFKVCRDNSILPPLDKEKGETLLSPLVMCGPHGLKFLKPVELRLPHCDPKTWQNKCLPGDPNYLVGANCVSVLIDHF

As for N-EQESSAAYGRKKRRQRRR-C [Pep I], in the assay with PC-3-CTR-wt cells (Pep I versus Pep II, 50 μM), the “relative potency as antagonist of CT-induced invasion” value was “the more potent antagonist”. In addition, the “effect on CT-induced invasion” value is “significantly attenuated” in the assay on PC-3-CTR-wt cells and “attenuate” in the assay with PC-3-CTR-wt cells (listed as TAT-pepI). For the same molecule, the “effect on basal invasion” value was “neither the control peptide nor Pep I (50 μM) significantly affected” in the assay on PC-3-CTR-wt cells and “did not significantly affect” in the assay with PC-3-CTR-wt cells (listed as PepI). The “effect on CTR-ZO-1 co-precipitation” value with CTR-ZO-1 interaction is reported as “markedly diminished”. In addition, in the assay with ZO-1 (PC-3CTR-ZO-1-MYC cells, 25 min), the “binding to ZO-1 (co-IP of 125I-labeled peptide)” value is “bound to ZO-1”. In addition, in the assay with ZO-1 (unlabeled Pep I 1000×, 20 μM), the “binding of 125I-Pep I to ZO-1 in the presence of unlabeled Pep I” value is on record as “almost abolished”.
For the molecule `Nc1ccc(/C=C2\NC(=O)NC2=O)c(Cl)c1` [MRM-4, (Z)-5-(4-amino-2-chlorobenzylidene)imidazolidine-2,4-dione], in assay [1], the “potency relative to PMH and S-PMH in blocking CTR-ZO-1 interaction-mediated TCF/LEF activity” value is “more potent”. For the same molecule, in assay [1] (with 50 nM CT), the “potency relative to PMH in inhibiting CT action” value is recorded as “significantly more potent than PMH”.
Turning to `O=S(=O)(NCCNC/C=C/c1ccc(Br)cc1)c1cccc2cnccc12` [Pep H-89], in the assay on protein kinase A (PKA), the “effect on CT-stimulated PKA activity” value is listed as “completely abolished”.
For N-IIEQESSAYGRKKRRQRRR-C [Pep II], the figures for the “effect on CT-induced invasion” value with PC-3-CTR-wt cells and in the assay on PC-3-CTR-wt cells (listed as pepII) were “significantly attenuated” and “attenuate”, respectively. In addition, in the assay on PC-3-CTR-wt cells, the “effect on basal invasion” value was “did not significantly affect”.
Regarding `O=C1NC(=O)/C(=C/c2ccccc2)N1` [PMH, phenyl-methylene hydrantoin], the “cell-cell adhesion, prostate tumor growth and metastasis” value in the assay on prostate tumor was “enhance cell-cell adhesion and attenuate prostate tumor growth and metastasis”. Also, in assay [1] (with 50 nM CT), the “effect on CT-stimulated luciferase activity” value is “decreased it remarkably”.
In the case of `O=C1NC(=O)/C(=C/c2ccc(/C=C3/NC(=O)NC3=O)cc2)N1` [MRM-6, (5Z,5′E)-5,5′-(1,4-phenylenebis(methan-1-yl-1-ylidene))diimidazolidine-2,4-dione], in assay [1], the “potency relative to PMH and S-PMH in blocking CTR-ZO-1 interaction-mediated TCF/LEF activity” value was “more potent”. The “potency relative to PMH in inhibiting CT action” value in assay [1] (with 50 nM CT) is “significantly more potent than PMH”.
For `CCSC1=N/C(=C\c2ccccc2)C(=O)N1` [S-PMH], the “cell-cell adhesion, prostate tumor growth and metastasis” value in the assay with prostate tumor is “enhance cell-cell adhesion and attenuate prostate tumor growth and metastasis”.
